From PubChem BioAssay AID256 (DTP/NCI, 2004)
Where “and” joins values, the source holds several entries; their conditions need not be identical. Equal values may be shown once. Inconclusive results and toxic doses are left out. The calls were made as follows: active = survival T/C of 150% or more; inactive = T/C below 125% in these data.

System: CD2F1 mice, L1210 leukemia ip, survival T/C
Test: NCI In Vivo Anticancer Drug Screen. Data for tumor model L1210 Leukemia (intraperitoneal) in CD2F1 (CDF1) mice
Settings: endpoint: mean survival time, higher = longer survival
In short: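 Read-out first: treated-group measurement over vehicle-control measurement, expressed as a ratio. Animals bore a transplanted tumor line and were dosed with compound or vehicle.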

[1] = dose: 50.0 mg/kg/injection, schedule: Q04DX002 (ip), vehicle: saline with Tween-80
[2] = dose: 100.0 mg/kg/injection, schedule: Q01DX001 (ip), vehicle: other
[3] = dose: 100.0 mg/kg/injection, schedule: Q01DX001 (ip), vehicle: saline with Tween-80
[4] = dose: 100.0 mg/kg/injection, schedule: Q04DX003 (ip), vehicle: saline with Tween-80
[5] = dose: 200.0 mg/kg/injection, schedule: Q01DX001 (ip), vehicle: other
[6] = dose: 200.0 mg/kg/injection, schedule: Q01DX001 (ip), vehicle: saline with Tween-80
[7] = dose: 200.0 mg/kg/injection, schedule: Q04DX003 (ip), vehicle: saline with Tween-80
[8] = dose: 400.0 mg/kg/injection, schedule: Q04DX003 (ip), vehicle: saline with Tween-80
[9] = dose: 100.0 mg/kg/injection, schedule: Q01DX009 (ip), vehicle: saline with Tween-80
[10] = dose: 200.0 mg/kg/injection, schedule: Q01DX009 (ip), vehicle: saline with Tween-80
[11] = dose: 100.0 mg/kg/injection, schedule: Q04DX002 (ip), vehicle: saline with Tween-80
[12] = dose: 200.0 mg/kg/injection, schedule: Q04DX002 (ip), vehicle: saline with Tween-80
[13] = dose: 400.0 mg/kg/injection, schedule: Q04DX002 (ip), vehicle: saline with Tween-80
[14] = dose: 100.0 mg/kg/injection, schedule: Q01DX001 (ip), vehicle: saline
[15] = dose: 200.0 mg/kg/injection, schedule: Q01DX001 (ip), vehicle: saline
[16] = dose: 400.0 mg/kg/injection, schedule: Q01DX001 (ip), vehicle: saline

Measured: T/C

CCCCCCCCCCCCCCCCCCN1CCCN(CCCCCCCCCCCCCCCCCC)CC1
inactive: dose: 25.0 mg/kg/injection, schedule: Q01DX009 (ip), vehicle: saline with Tween-80 107 % of control and 111 % of control | dose: 25.0 mg/kg/injection, schedule: Q04DX002 (ip), vehicle: saline with Tween-80 93 % of control and 98 % of control | dose: 50.0 mg/kg/injection, schedule: Q01DX001 (ip), vehicle: saline with Tween-80 98 % of control | dose: 50.0 mg/kg/injection, schedule: Q01DX009 (ip), vehicle: other 93 % of control and 95 % of control | [1] 89 % of control and 97 % of control | dose: 50.0 mg/kg/injection, schedule: Q04DX003 (ip), vehicle: saline with Tween-80 104 % of control | [2] 94 % of control | [3] 91 % of control | dose: 100.0 mg/kg/injection, schedule: Q01DX009 (ip), vehicle: other 115 % of control and 101 % of control | dose: 100.0 mg/kg/injection, schedule: Q04DX002 (ip), vehicle: other 94 % of control and 96 % of control | dose: 100.0 mg/kg/injection, schedule: Q04DX003 (ip), vehicle: other 93 % of control | [4] 89 % of control | [5] 98 % of control | [6] 95 % of control | dose: 200.0 mg/kg/injection, schedule: Q01DX009 (ip), vehicle: other 102 % of control and 108 % of control | dose: 200.0 mg/kg/injection, schedule: Q04DX002 (ip), vehicle: other 96 % of control and 105 % of control | dose: 200.0 mg/kg/injection, schedule: Q04DX003 (ip), vehicle: other 96 % of control | [7] 101 % of control | dose: 400.0 mg/kg/injection, schedule: Q01DX001 (ip), vehicle: other 110 % of control | dose: 400.0 mg/kg/injection, schedule: Q01DX009 (ip), vehicle: other 101 % of control and 104 % of control | dose: 400.0 mg/kg/injection, schedule: Q04DX002 (ip), vehicle: other 105 % of control | dose: 400.0 mg/kg/injection, schedule: Q04DX003 (ip), vehicle: other 100 % of control

Nc1ccc([N+](=O)[O-])cn1
inactive: dose: 75.0 mg/kg/injection, schedule: Q01DX009 (ip), vehicle: saline with Tween-80 94 % of control | [4] 107 % of control | dose: 150.0 mg/kg/injection, schedule: Q01DX009 (ip), vehicle: saline with Tween-80 87 % of control | [7] 103 % of control | dose: 300.0 mg/kg/injection, schedule: Q01DX009 (ip), vehicle: saline with Tween-80 93 % of control | [8] 96 % of control

COc1cc(C2C3CN(C4CCCCC4)C(=O)C3NN2C(C)=O)ccc1OC(C)=O (stereo not given)
inactive: [9] 93 % of control | [10] 95 % of control | dose: 400.0 mg/kg/injection, schedule: Q01DX009 (ip), vehicle: saline with Tween-80 95 % of control

C/C=C/C=C/C(=O)n1nnn(/C=C/C=C/C)c1=O
inactive: [1] 98 % of control | [11] 91 % of control | [12] 95 % of control | [13] 98 % of control

CC1CCN=C(CCC2CCCCC2=O)O1 (stereo not given)
inactive: [4] 96 % of control | [7] 101 % of control | [8] 96 % of control

O=S1(=O)CCCCN1c1ccccn1
inactive: [11] 102 % of control | [12] 94 % of control | [13] 105 % of control

COc1cc(Cl)ccc1NC(=O)Nc1ccc(C(=O)O)cc1
inactive: dose: 50.0 mg/kg/injection, schedule: Q01DX009 (ip), vehicle: saline with Tween-80 95 % of control | [9] 95 % of control | [10] 91 % of control

CC(OC(=O)c1ccc([N+](=O)[O-])cc1)C(C)(C)C (stereo not given)
inactive: [14] 98 % of control | [15] 100 % of control | [16] 96 % of control

O=NN(CCOS(=O)(=O)c1ccc(Br)cc1)C(=O)NC1CCCCC1
inactive: [2] 102 % of control | [5] 101 % of control

Cc1ccc(S(=O)(=O)OC2CNP(=O)(N(CCCl)CCCl)OC2)cc1 (stereo not given)
inactive: dose: 25.0 mg/kg/injection, schedule: Q01DX001 (ip), vehicle: DMSO 96 % of control | dose: 50.0 mg/kg/injection, schedule: Q01DX001 (ip), vehicle: DMSO 100 % of control | dose: 100.0 mg/kg/injection, schedule: Q01DX001 (ip), vehicle: DMSO 94 % of control | dose: 200.0 mg/kg/injection, schedule: Q01DX001 (ip), vehicle: DMSO 100 % of control | dose: 400.0 mg/kg/injection, schedule: Q01DX001 (ip), vehicle: DMSO 98 % of control | dose: 800.0 mg/kg/injection, schedule: Q01DX001 (ip), vehicle: DMSO 91 % of control

Cc1ccc(/C(C#N)=C/c2ccc3c(c2)OCO3)cc1
inactive: [11] 94 % of control | [12] 97 % of control | [13] 91 % of control

CC(C)(C)[Si](C)(C)OP(=O)(O[Si](C)(C)C(C)(C)C)N(CCCl)CCCl
inactive: dose: 15.63 mg/kg/injection, schedule: Q01DX001 (ip), vehicle: distilled water + Tween-80 97 % of control | dose: 31.3 mg/kg/injection, schedule: Q01DX001 (ip), vehicle: distilled water + Tween-80 103 % of control | dose: 62.5 mg/kg/injection, schedule: Q01DX001 (ip), vehicle: distilled water + Tween-80 106 % of control | dose: 125.0 mg/kg/injection, schedule: Q01DX001 (ip), vehicle: distilled water + Tween-80 105 % of control | dose: 250.0 mg/kg/injection, schedule: Q01DX001 (ip), vehicle: distilled water + Tween-80 101 % of control | dose: 500.0 mg/kg/injection, schedule: Q01DX001 (ip), vehicle: distilled water + Tween-80 109 % of control

CCCCCCCCCCCCCCCCN(C)S(=O)(=O)c1cccc(S(=O)(=O)F)c1
inactive: [4] 95 % of control | [7] 101 % of control | [8] 102 % of control

COC(=O)C1CC2C(=O)CCCCCCC2C1O (stereo not given)
inactive: [3] 93 % of control | [6] 101 % of control | dose: 400.0 mg/kg/injection, schedule: Q01DX001 (ip), vehicle: saline with Tween-80 98 % of control

CC(=O)O[C@@H]1[C@@H](O)C2=C3[C@]4(C)[C@@H]1C(C)(C)C(=O)C[C@@H]4[C@]3(O)[C@H](OC(C)=O)[C@@]1(C[C@@H]1C)C2=O
inactive: dose: 3.12 mg/kg/injection, schedule: Q01DX009 (ip), vehicle: distilled water + Tween-80 102 % of control | dose: 3.12 mg/kg/injection, schedule: Q01DX009 (ip), vehicle: saline 96 % of control | dose: 6.25 mg/kg/injection, schedule: Q01DX009 (ip), vehicle: distilled water + Tween-80 105 % of control | dose: 6.25 mg/kg/injection, schedule: Q01DX009 (ip), vehicle: saline 102 % of control | dose: 12.5 mg/kg/injection, schedule: Q01DX009 (ip), vehicle: distilled water + Tween-80 100 % of control | dose: 12.5 mg/kg/injection, schedule: Q01DX009 (ip), vehicle: saline 104 % of control | dose: 25.0 mg/kg/injection, schedule: Q01DX009 (ip), vehicle: distilled water + Tween-80 100 % of control | dose: 25.0 mg/kg/injection, schedule: Q01DX009 (ip), vehicle: saline 104 % of control | dose: 50.0 mg/kg/injection, schedule: Q01DX009 (ip), vehicle: distilled water + Tween-80 103 % of control | dose: 50.0 mg/kg/injection, schedule: Q01DX009 (ip), vehicle: saline 108 % of control | dose: 100.0 mg/kg/injection, schedule: Q01DX009 (ip), vehicle: distilled water + Tween-80 96 % of control | dose: 100.0 mg/kg/injection, schedule: Q01DX009 (ip), vehicle: saline 111 % of control

Oc1ccc(Br)cc1/C=N/c1nc(-c2ccccc2)cs1.Oc1ccc(Br)cc1/C=N/c1nc(-c2ccccc2)cs1.[Cu]
inactive: dose: 12.5 mg/kg/injection, schedule: Q01DX001 (ip), vehicle: saline 87 % of control | dose: 25.0 mg/kg/injection, schedule: Q01DX001 (ip), vehicle: saline 100 % of control | dose: 50.0 mg/kg/injection, schedule: Q01DX001 (ip), vehicle: saline 91 % of control | [6] 93 % of control

COC(=O)c1ccccc1NCC(O)C(O)C(O)CO (stereo not given)
inactive: [14] 98 % of control | [15] 101 % of control | [16] 86 % of control

Cc1onc(-c2ccccc2)c1C1=N/C(=C\c2ccc(N(C)C)cc2)C(=O)O1
inactive: [11] 94 % of control | [12] 113 % of control | [13] 90 % of control

c1ccc2c(c1)NCCN2
inactive: dose: 25.0 mg/kg/injection, schedule: Q01DX001 (ip), vehicle: saline + alcohol 100 % of control | dose: 50.0 mg/kg/injection, schedule: Q01DX001 (ip), vehicle: saline + alcohol 100 % of control | dose: 100.0 mg/kg/injection, schedule: Q01DX001 (ip), vehicle: saline + alcohol 106 % of control
